Data set [1] addresses CFTR-mediated chloride transport in human intestinal epithelial enteroid cells (Homo sapiens, UniProt P13569). The data set can be described thus: Membrane potential dye, Enteroid Assay A. The class given is cell-based. The procedure, abridged: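 Membrane potential dye (20 μM methyl oxonol, with 30 μM CaCCinh-A01 and 30 μM Chicago Sky Blue) loaded 25 min at room temperature into ROCK-inhibitor-seeded human enteroid cells. Chloride-free stimulation buffer triggered transport, followed by 15 min fluorescence. % Activity relative to 3 μM/3 μM/300 nM triple-combination control.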

The mark [2] stands for this setting: from Cc1cccc(C)c1-c1cc(Cl)nc(NS(=O)(=O)c2cccc(C(=O)N3CCN(C(C)C(C)(C)C)C[C@@H](O)C3)c2)n1, snar bond, 13-membered ring, NaH, DMF, 31.4 mM, 0.0 °C, 7.0 h.
Where [3] appears, read: from Cc1cccc(C)c1-c1cc(OCC2c3ccc(C(C)(C)C)cc3CNC2C)nc(NS(=O)(=O)c2cccc(C(=O)O)c2)n1, amide bond, 14-membered ring, HATU/TEA, DMF, 44.8 mM, 50.0 °C, 0.5 h, 2 steps.

Where two headings read alike, the source gives them in different places.

Chain of CFTR-mediated chloride transport in human intestinal epithelial enteroid cells (P13569 with tags, fused parts or gaps DEL508-508): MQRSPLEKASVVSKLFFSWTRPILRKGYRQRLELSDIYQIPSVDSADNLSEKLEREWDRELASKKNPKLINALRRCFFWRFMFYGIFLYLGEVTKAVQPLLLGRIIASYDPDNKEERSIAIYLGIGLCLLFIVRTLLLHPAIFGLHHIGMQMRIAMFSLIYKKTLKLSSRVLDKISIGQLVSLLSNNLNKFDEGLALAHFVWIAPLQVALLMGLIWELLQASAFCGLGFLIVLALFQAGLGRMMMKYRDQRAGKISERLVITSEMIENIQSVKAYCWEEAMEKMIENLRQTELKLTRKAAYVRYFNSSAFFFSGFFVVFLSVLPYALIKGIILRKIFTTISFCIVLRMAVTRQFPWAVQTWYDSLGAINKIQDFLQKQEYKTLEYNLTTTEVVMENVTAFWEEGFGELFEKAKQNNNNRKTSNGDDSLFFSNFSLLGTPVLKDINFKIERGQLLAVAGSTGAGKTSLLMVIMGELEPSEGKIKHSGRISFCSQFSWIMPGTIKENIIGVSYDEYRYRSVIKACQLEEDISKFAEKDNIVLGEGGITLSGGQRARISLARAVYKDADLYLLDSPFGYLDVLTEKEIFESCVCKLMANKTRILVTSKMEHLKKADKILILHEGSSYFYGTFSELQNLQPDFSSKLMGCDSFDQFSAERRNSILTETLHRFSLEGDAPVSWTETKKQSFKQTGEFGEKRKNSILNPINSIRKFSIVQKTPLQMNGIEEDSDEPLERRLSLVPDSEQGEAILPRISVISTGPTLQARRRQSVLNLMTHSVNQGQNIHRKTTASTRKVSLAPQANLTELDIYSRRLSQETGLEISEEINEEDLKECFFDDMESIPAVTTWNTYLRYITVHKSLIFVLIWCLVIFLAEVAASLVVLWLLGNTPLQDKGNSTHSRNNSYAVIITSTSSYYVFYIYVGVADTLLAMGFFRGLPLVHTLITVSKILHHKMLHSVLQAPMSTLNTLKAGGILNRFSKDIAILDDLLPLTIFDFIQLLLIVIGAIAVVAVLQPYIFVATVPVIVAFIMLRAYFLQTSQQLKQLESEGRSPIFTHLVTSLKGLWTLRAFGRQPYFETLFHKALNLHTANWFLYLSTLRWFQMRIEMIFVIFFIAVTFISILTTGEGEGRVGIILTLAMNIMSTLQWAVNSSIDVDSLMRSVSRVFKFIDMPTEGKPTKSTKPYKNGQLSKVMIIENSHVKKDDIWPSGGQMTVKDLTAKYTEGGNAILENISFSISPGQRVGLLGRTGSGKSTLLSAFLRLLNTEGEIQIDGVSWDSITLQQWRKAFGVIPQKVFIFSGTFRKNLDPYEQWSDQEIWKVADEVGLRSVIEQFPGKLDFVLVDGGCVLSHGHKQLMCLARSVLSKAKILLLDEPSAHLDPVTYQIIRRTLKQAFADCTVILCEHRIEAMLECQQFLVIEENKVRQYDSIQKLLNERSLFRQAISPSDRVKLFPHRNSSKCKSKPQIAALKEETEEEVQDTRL

On to `Cc1cccc(C)c1-c1cc2nc(n1)NS(=O)(=O)c1cccc(c1)C(=O)N1CC(CCC1c1ccccc1)O2` (stereo not drawn), for which the ring closure, yield after HPLC runs as follows: (from Cc1cccc(C)c1-c1cc(OC2CCC(c3ccccc3)NC2)nc(NS(=O)(=O)c2cccc(C(=O)O)c2)n1, amide bond, 13-membered ring, HATU/DIEA, DMF, 156.0 mM, 25.0 °C, 0.083 h, 3 steps) 37%; (from Cc1cccc(C)c1-c1cc(OC2CCC(c3ccccc3)NC2)nc(NS(=O)(=O)c2cccc(C(=O)Oc3c(F)c(F)c(F)c(F)c3F)c2)n1, amide bond, 13-membered ring, thermal (OPfp ester), NMP, 36.0 mM, 130.0 °C, 1.0 h, 4 steps) 7%.

`Cc1cccc(C)c1-c1cc2nc(n1)NS(=O)(=O)c1cccc(c1)C(=O)N1CC(O2)C2CCCN(C)C2C1` (stereo not drawn) returned a ring closure, yield after HPLC (from Cc1cccc(C)c1-c1cc(OC2CNCC3C2CCCN3C)nc(NS(=O)(=O)c2cccc(C(=O)O)c2)n1, amide bond, 13-membered ring, HATU/DIEA, DMF, 27.2 mM, 25.0 °C, 0.67 h) of 10%.

Under “from Cc1cccc(C)c1-c1cc(OC2CNC(CC(C)C)c3ccccc32)nc(NS(=O)(=O)c2cccc(C(=O)O)c2)n1, amide bond, 13-membered ring, HATU/DIEA, DMF, 256.0 mM, 1.0 h”, `Cc1cccc(C)c1-c1cc2nc(n1)NS(=O)(=O)c1cccc(c1)C(=O)N1CC(O2)c2ccccc2C1CC(C)C` (stereo not drawn) displayed a ring closure, yield after HPLC of 8%.

Consider `Cc1cccc(C)c1-c1cc2nc(n1)NS(=O)(=O)c1cccc(c1)C(=O)N1CCCC(O2)C1CC(C)C` (stereo not drawn), for which the ring closure, yield after HPLC reads like this: (from Cc1cccc(C)c1-c1cc(Cl)nc(NS(=O)(=O)c2cccc(C(=O)N3CCCC(O)C3CC(C)C)c2)n1, snar bond, 13-membered ring, NaH, DMF, 17.2 mM, 25.0 °C, 40.0 h) 17%; (from Cc1cccc(C)c1-c1cc(Cl)nc(NS(=O)(=O)c2cccc(C(=O)N3CCCC(O)C3CC(C)C)c2)n1, snar bond, 13-membered ring, NaH, DMF, 18.3 mM, 25.0 °C, 24.0 h) 24%.

For `Cc1cccc(C)c1-c1cc2nc(n1)NS(=O)(=O)c1cccc(c1)C(=O)N1CCOC[C@@H]1C(Cc1ccccc1)O2` (stereo partly drawn), the ring closure, yield after HPLC (from Cc1cccc(C)c1-c1cc(OC(Cc2ccccc2)[C@H]2COCCN2)nc(NS(=O)(=O)c2cccc(C(=O)O)c2)n1, amide bond, 13-membered ring, HATU/DIEA, DMF, 61.0 mM, 25.0 °C, 1.5 h) was 74%.

In turn, `Cc1cccc(C)c1-c1cc2nc(n1)NS(=O)(=O)c1cccc(c1)C(=O)N1Cc3cc(C(C)(C)C)ccc3[C@H](O2)[C@H]1CC(C)(C)C` had a ring closure, yield after HPLC (from Cc1cccc(C)c1-c1cc(O[C@H]2c3ccc(C(C)(C)C)cc3CN[C@@H]2CC(C)(C)C)nc(NS(=O)(=O)c2cccc(C(=O)O)c2)n1, amide bond, 13-membered ring, HATU/NaOtBu, DMF/THF, 0.25 h, 2 steps) of 3%.

Consider `Cc1cccc(C)c1-c1cc2nc(n1)NS(=O)(=O)c1cccc(c1)C(=O)N1Cc3cc(C(F)(F)F)ccc3[C@@H](O2)[C@H]1CC(C)C`, for which, under “from Cc1cccc(C)c1-c1cc(O[C@@H]2c3ccc(C(F)(F)F)cc3CN[C@@H]2CC(C)C)nc(NS(=O)(=O)c2cccc(C(=O)O)c2)n1, amide bond, 13-membered ring, HATU/NaOtBu, DMF/THF, 0.25 h, 3 steps”, the ring closure, yield after HPLC was 3%.

On to `Cc1cccc(C)c1-c1cc2nc(n1)NS(=O)(=O)c1cccc(c1)C(=O)N1Cc3cc(C(F)(F)F)ccc3[C@H](O2)[C@H]1CC(C)C`, for which the ring closure, yield after HPLC (from Cc1cccc(C)c1-c1cc(O[C@H]2c3ccc(C(F)(F)F)cc3CN[C@@H]2CC(C)C)nc(NS(=O)(=O)c2cccc(C(=O)O)c2)n1, amide bond, 13-membered ring, HATU/NaOtBu, DMF/THF, 0.25 h, 3 steps) was determined as 5%.

As to `Cc1cccc(C)c1-c1cc2nc(n1)NS(=O)(=O)c1cccc(c1)C(=O)N1Cc3ccncc3C(C1)O2` (stereo not drawn), the ring closure, yield after HPLC (from Cc1cccc(C)c1-c1cc(OC2CNCc3ccncc32)nc(NS(=O)(=O)c2cccc(C(=O)O)c2)n1, amide bond, 13-membered ring, HATU/DIEA, DMF, 23.5 mM, 0.5 h, 2 steps) stood at 3%.

With `Cc1ccccc1-c1cc2nc(n1)NS(=O)(=O)c1cccc(c1)C(=O)N1Cc3ccccc3[C@H](O2)[C@H]1CC(C)C`, the ring closure, yield after HPLC (from Cc1ccccc1-c1cc(O[C@H]2c3ccccc3CN[C@@H]2CC(C)C)nc(NS(=O)(=O)c2cccc(C(=O)O)c2)n1, amide bond, 13-membered ring, HATU/DIEA, DMF, 190.0 mM, 0.5 h, 3 steps) amounted to 18%.

“12-(2,6-dimethylphenyl)-23-(2-methylpropyl)-15-oxa-8λ^6-thia-1,9,11,25-tetraazapentacyclo[14.7.1.13,7.110,14.017,22]hexacosa-3(26),4,6,10(25),11,13,17,19,21-nonaene-2,8,8-trione, major diastereomer”: the ring closure, yield after HPLC (amide bond, 13-membered ring, HATU/DIEA, DMF, 115.0 mM) worked out at 53%.

The compound `Cc1cccc(C)c1-c1cc2nc(n1)NS(=O)(=O)c1cccc(c1)C(=O)N1Cc3cccnc3C(C1)O2` (single isomer, unassigned) [Compound 195, 12-(2,6-dimethylphenyl)-15-oxa-8λ^6-thia-1,9,11,18,25-pentaazapentacyclo[14.7.1.13,7.110,14.017,22]hexacosa-3,5,7(26),10(25),11,13,17,19,21-nonaene-2,8,8-trione] gave a ring closure, yield after HPLC (from Cc1cccc(C)c1-c1cc(OC2CNCc3cccnc32)nc(NS(=O)(=O)c2cccc(C(=O)O)c2)n1, amide bond, 13-membered ring, HATU/DIEA, DMF, 8.0 mM, 1.0 h) of 76%. The EC50 (in general, the midpoint of the concentration-response curve) in data set [1] (enteroid cells incubated with test compound 18-24 hours, acute 10 μM forskolin and 300 nM N-[2,4-bis(1,1-dimethylethyl)-5-hydroxyphenyl]-1,4-dihydro-4-oxoquinoline-3-carboxamide, read-out: Ent. A EC50) was 3 to 30 µM. Moreover, in data set [1] (percentage of chloride transport of triple combination control (3 μM N-[(6-amino-2-pyridyl)sulfonyl]-6-(3-fluoro-5-isobutoxy-phenyl)-2-[(4S)-2,2,4-trimethylpyrrolidin-1-yl]pyridine-3-carboxamide based)), the “Ent. A Max Activity (%)” value was “++ (++ is 30-60%)”.

In the case of `Cc1cccc(C)c1-c1cc2nc(n1)NS(=O)(=O)c1cccc(c1)C(=O)N1CC(CC(c3ccccc3)C1)O2` (single isomer, unassigned; diastereomer 1), the ring closure, yield after HPLC (from 3-[[4-(2,6-dimethylphenyl)-6-[(5-phenyl-3-piperidyl)oxy]pyrimidin-2-yl]sulfamoyl]benzoic acid (hydrochloride salt), diastereomer 1, amide bond, 13-membered ring, HATU/DIEA, DMF, 37.8 mM, 25.0 °C, 3 steps) turned out to be 1%.

Compound `Cc1cccc(C)c1-c1cc2nc(n1)NS(=O)(=O)c1cccc(c1)C(=O)N1CC(O2)C2CCCN(C)C2C1` (single isomer, unassigned; diastereomer 1) gave a ring closure, yield after HPLC (from Cc1cccc(C)c1-c1cc(OC2CNCC3C2CCCN3C)nc(NS(=O)(=O)c2cccc(C(=O)O)c2)n1, amide bond, 13-membered ring, HATU/DIEA, DMF, 20.5 mM, 25.0 °C, 1.0 h) of 54%.

As for `Cc1cccc(C)c1-c1cc2nc(n1)NS(=O)(=O)c1cccc(c1)C(=O)N1CCN(C(C)C(C)(C)C)C[C@H](C1)O2` (single isomer, unassigned; diastereomer 1), the ring closure, yield after HPLC under setting [2] came out at 36%.

Take `Cc1cccc(C)c1-c1cc2nc(n1)NS(=O)(=O)c1cccc(c1)C(=O)N1CC(CC(c3ccccc3)C1)O2` (single isomer, unassigned; diastereomer 2): the ring closure, yield after HPLC (from 3-[[4-(2,6-dimethylphenyl)-6-[(5-phenyl-3-piperidyl)oxy]pyrimidin-2-yl]sulfamoyl]benzoic acid (hydrochloride salt), diastereomer 2, amide bond, 13-membered ring, HATU/DIEA, DMF, 61.9 mM, 25.0 °C, 3 steps) turned out to be 31%.

In turn, `Cc1cccc(C)c1-c1cc2nc(n1)NS(=O)(=O)c1cccc(c1)C(=O)N1CCN(C(=O)OCc3ccccc3)CC(O2)[C@H]1C` (single isomer, unassigned; diastereomer 2) had a ring closure, yield after HPLC (from Cc1cccc(C)c1-c1cc(Cl)nc(NS(=O)(=O)c2cccc(C(=O)N3CCN(C(=O)OCc4ccccc4)CC(O)[C@H]3C)c2)n1, snar bond, 13-membered ring, NaH, DMF, 30.1 mM, 0.0 °C, 1.5 h) of 7%.

For the compound `Cc1cccc(C)c1-c1cc2nc(n1)NS(=O)(=O)c1cccc(c1)C(=O)N1CCN(C(C)C(C)(C)C)C[C@H](C1)O2` (single isomer, unassigned; diastereomer 2), the ring closure, yield after HPLC under setting [2] was 33%.

On to `Cc1cccc(C)c1-c1cc2nc(n1)NS(=O)(=O)c1cccc(c1)C(=O)N1Cc3cc(C(C)(C)C)ccc3C(CO2)C1C` (single isomer, unassigned; enantiomer 1), for which the ring closure, yield after HPLC under setting [3] was determined as 2%.

`Cc1cccc(C)c1-c1cc2nc(n1)NS(=O)(=O)c1cccc(c1)C(=O)N1Cc3cc(C(C)(C)C)ccc3C(CO2)C1C` (single isomer, unassigned; enantiomer 2): under setting [3], the ring closure, yield after HPLC was determined as 1%.

`Cc1cccc(C)c1-c1cc2nc(n1)NS(=O)(=O)c1cccc(n1)C(=O)N1CCN(CCC(C)(C)C)CC(C1)O2` (stereo not drawn) [Compound 70, 18-(3,3-Dimethylbutyl)-12-(2,6-dimethylphenyl)-15-oxa-8λ^6-thia-1,9,11,18,22,23-hexaazatetracyclo[14.4.1.13,7.110,14]tricosa-3,5,7(23),10,12,14(22)-hexaene-2,8,8-trione] gave a ring closure, yield after HPLC (from Cc1cccc(C)c1-c1cc(OC2CNCCN(CCC(C)(C)C)C2)nc(NS(=O)(=O)c2cccc(C(=O)O)n2)n1, amide bond, 13-membered ring, HATU/DIEA, DMF, 78.0 mM, 25.0 °C, 0.5 h, 2 steps) of 1%. In data set [1] (Enteroid Assay A), the “Ent. A Max Activity (%)” value was “+ (+ is <30%)”.

For the compound `Cc1cccc(C)c1-c1cc2nc(n1)NS(=O)(=O)c1cccc(c1)C(=O)N1CC[C@H](C1)O2` [Compound 214, (3R)-17-(2,6-Dimethylphenyl)-2-oxa-13λ^6-thia-6,14,16,19-tetraazatetracyclo[13.3.1.13,6.18,12]henicosa-1(19),8(20),9,11,15,17-hexaene-7,13,13-trione], the ring closure, yield after HPLC (from Cc1cccc(C)c1-c1cc(O[C@@H]2CCNC2)nc(NS(=O)(=O)c2cccc(C(=O)O)c2)n1, amide bond, 13-membered ring, HATU/TEA, DMF, 56.8 mM, 25.0 °C, 1.0 h) stood at 17%.

Values taken from patent US20240018161A1, “MODULATORS OF CYSTIC FIBROSIS TRANSMEMBRANE CONDUCTANCE REGULATOR” (VERTEX PHARMACEUTICALS INCORPORATED, priority 2020, published 2024).
